Laboratory results as given in ChEMBL document CHEMBL1201862, “PubChem BioAssay data set” (2004).
Values joined by “and” are separate entries in the source; they are usually repeats but may differ in a detail not shown here. Identical values can stand only once. Active and inactive are the calls of the source.

Key:
[1] = biological target: T1, Neuropeptide Y receptor type 2 (Homo sapiens, UniProt P49146); assay type: functional, cell-based;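 note: HEK293 cells expressing the receptor and a CNG channel; stimulus was NPY near EC95 followed by isoproterenol to raise cAMP; antagonist potency measured as restoring cAMP signal that NPY suppresses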
T1 sequence (P49146 whole entry): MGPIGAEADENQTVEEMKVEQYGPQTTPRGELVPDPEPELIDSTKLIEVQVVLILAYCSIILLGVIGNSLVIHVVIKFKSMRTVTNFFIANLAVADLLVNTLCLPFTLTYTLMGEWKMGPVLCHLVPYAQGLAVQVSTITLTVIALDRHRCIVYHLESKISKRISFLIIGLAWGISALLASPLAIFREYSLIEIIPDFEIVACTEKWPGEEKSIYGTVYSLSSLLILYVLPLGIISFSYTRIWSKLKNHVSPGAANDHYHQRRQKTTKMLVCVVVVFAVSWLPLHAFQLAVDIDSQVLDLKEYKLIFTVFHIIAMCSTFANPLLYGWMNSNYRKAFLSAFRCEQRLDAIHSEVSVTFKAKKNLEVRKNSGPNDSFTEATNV

[2] = biological target: T2, Neuropeptide Y receptor type 1 (Homo sapiens, UniProt P25929); assay type: functional;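 note: HEK293 cells with a CNG channel challenged with NPY then isoproterenol; potency as antagonist that reverses NPY suppression of cAMP signal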
T2 sequence (P25929 whole entry): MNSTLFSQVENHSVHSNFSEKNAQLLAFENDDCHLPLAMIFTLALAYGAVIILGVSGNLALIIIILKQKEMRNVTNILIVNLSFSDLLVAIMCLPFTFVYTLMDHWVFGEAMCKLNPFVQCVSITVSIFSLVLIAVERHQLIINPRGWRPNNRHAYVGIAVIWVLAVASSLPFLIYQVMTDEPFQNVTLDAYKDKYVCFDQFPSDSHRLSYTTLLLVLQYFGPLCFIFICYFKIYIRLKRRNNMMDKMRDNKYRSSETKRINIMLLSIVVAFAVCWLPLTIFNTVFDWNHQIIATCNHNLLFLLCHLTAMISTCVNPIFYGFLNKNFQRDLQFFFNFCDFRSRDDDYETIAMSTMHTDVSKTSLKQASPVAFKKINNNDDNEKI

[3] = P. falciparum late gametocyte killing, dose response, luminescence (AID 1117278); assay type: functional, cell-based;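 note: gametocytes exposed to compound for 24 hours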
Estrogen receptor = biological target: T3, Estrogen receptor (Homo sapiens, UniProt P03372);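 note: potency for inhibiting coactivator peptide recruitment to the receptor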
T3 sequence (P03372 whole entry): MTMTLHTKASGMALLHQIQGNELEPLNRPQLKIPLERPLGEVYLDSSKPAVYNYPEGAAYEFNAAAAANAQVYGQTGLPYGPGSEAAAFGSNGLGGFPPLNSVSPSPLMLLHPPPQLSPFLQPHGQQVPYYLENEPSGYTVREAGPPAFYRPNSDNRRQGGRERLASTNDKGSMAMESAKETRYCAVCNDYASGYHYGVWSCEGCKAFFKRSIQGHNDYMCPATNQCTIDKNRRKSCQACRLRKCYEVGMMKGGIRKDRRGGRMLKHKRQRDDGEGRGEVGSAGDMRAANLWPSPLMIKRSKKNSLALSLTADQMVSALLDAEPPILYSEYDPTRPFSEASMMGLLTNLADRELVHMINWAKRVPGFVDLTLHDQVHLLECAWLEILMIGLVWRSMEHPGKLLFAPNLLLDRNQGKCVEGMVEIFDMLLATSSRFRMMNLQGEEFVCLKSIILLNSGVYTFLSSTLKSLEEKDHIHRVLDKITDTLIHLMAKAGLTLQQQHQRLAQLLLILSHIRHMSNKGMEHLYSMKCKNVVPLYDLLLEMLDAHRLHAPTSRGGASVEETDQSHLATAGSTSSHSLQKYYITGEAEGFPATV

[4] = Jurkat T cell cytotoxicity, dose response, cytotoxicity control for P. falciparum gametocyte viability project, luminescence (AID 1117277); assay type: functional, cell-based;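 note: potency reflects loss of cellular ATP meaning fewer viable cells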
Estrogen receptor beta [5] = biological target: T4, Estrogen receptor beta (Homo sapiens, UniProt Q92731); experiment: ERβ–SRC-3 coactivator interaction inhibitors, confirmation, orthogonal assay, biochemical, ELISA, streptavidin-HRP readout (AID 1060)
Estrogen receptor beta [6] = biological target: T4, Estrogen receptor beta
[7] = biological target: T5, Heat shock factor protein 1 (Mus musculus, UniProt P38532); experiment: inhibition of MG132-induced HSE-luciferase signal, confirmation, cell-based, NIH3T3, luminescence, dose retest (AID 2382); assay type: functional;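 note: NIH3T3 fibroblasts with HSF1-driven luciferase reporter stressed by proteasome inhibitor MG132; luminescence from HSF1-driven luciferase expression after 8 hours of MG132 stress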
T5 sequence (P38532 whole entry): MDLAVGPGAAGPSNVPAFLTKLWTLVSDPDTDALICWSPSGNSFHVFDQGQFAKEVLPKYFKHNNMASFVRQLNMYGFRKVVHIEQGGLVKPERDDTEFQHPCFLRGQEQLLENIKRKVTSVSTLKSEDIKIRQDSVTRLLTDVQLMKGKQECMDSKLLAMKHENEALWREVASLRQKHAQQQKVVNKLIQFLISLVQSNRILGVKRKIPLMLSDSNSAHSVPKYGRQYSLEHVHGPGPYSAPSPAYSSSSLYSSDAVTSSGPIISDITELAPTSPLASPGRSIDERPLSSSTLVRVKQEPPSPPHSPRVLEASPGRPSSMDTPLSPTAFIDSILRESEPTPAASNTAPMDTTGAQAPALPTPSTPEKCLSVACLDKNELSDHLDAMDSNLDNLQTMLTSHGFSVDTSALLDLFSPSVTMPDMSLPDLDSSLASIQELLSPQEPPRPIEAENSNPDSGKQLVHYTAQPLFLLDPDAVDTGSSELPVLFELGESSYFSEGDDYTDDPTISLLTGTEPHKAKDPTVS

[8] = biological target: T6, Mannose-6-phosphate isomerase (Homo sapiens, UniProt P34949); experiment: human PMI inhibitors, high substrate, primary screen, biochemical, fluorescence intensity, high mannose 6-phosphate (AID 1220)
T6 sequence (P34949 whole entry): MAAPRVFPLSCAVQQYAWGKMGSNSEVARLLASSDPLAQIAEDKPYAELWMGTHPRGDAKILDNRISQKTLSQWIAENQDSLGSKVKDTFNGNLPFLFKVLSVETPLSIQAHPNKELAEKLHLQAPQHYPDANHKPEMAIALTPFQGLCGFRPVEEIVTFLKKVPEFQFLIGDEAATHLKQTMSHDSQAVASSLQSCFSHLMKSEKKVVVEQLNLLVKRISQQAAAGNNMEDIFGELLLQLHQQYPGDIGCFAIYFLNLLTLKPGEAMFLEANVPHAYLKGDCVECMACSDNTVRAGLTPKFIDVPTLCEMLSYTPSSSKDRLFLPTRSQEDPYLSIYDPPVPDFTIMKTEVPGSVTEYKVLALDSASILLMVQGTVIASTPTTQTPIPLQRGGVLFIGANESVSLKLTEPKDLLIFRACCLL

Major prion protein = Major prion protein (Homo sapiens, UniProt P04156); assay type: functional, cell-based
Coagulation factor XII = biological target: T7, Coagulation factor XII (Homo sapiens, UniProt P00748); assay type: functional;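 note: activated factor XIIa alpha cleaving a fluorogenic AMC peptide substrate; inhibitor potency from loss of enzyme activity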
T7 sequence (P00748 whole entry): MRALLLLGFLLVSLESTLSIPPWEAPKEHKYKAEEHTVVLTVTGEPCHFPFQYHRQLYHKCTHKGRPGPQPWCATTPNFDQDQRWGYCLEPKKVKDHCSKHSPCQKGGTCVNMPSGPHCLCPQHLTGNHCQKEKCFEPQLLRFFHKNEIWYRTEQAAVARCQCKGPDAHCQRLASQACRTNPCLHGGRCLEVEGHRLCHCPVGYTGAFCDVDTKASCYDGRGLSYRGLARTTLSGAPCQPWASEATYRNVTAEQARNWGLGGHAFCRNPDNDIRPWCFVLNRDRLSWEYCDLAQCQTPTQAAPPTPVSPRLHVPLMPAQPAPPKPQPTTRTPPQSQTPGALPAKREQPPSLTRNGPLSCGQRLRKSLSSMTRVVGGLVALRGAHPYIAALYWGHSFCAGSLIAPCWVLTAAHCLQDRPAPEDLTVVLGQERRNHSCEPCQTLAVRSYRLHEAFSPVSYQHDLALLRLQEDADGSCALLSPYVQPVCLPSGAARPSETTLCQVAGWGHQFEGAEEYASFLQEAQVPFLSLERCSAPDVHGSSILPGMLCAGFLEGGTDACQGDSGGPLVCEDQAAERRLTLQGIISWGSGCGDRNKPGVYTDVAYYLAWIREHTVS

[9] = THP-1 cell cytotoxicity, dose response, cytotoxicity control for Vif-APOBEC3G degradation inhibitor project, THP-1 cells (AID 1117359); assay type: functional; conditions: Human immunodeficiency virus 1, THP-1
[10] = LGR2 antagonists, dose response, cell-based, HEK293, CRE-luciferase reporter, cherry pick, set 2 (AID 743343); assay type: functional;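 note: transfected cells were stimulated with diluted bursicon conditioned medium after compound addition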
[11] = HepG2 cell cytotoxicity, dose response, cytotoxicity control, cherry-picked samples (AID 1159577); assay type: functional, cell-based
[12] = MC4R antagonists, dose response, counter-screen for LGR2 antagonist project, cell-based, plate reader, cherry pick (AID 743444); assay type: functional;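 note: transfected HEK 293 cells stimulated with alpha-MSH peptide; potency of inhibitors of the alpha-MSH evoked signal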
[13] = P. falciparum Dd2 growth inhibitors, dose response, SYBR Green, cherry-picked samples (AID 1159567); assay type: functional, cell-based
[14] = A549 cell cytotoxicity, dose response, cytotoxicity control, plate reader, cherry-pick, antagonist series (AID 743412); assay type: functional, cell-based
[15] = HepG2 cell cytotoxicity, dose response, cytotoxicity control, plate reader, cherry-pick, antagonist series (AID 743416); assay type: functional, cell-based
[16] = HepG2 cell cytotoxicity, dose response, cytotoxicity control, plate reader, dry powder samples (AID 1159569); assay type: functional, cell-based;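 note: inhibitor potency with signal falling toward the positive control level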
[17] = P. falciparum 3D7-ScDHODH growth inhibitors, dose response, SYBR Green, dry powder samples (AID 1159570); assay type: functional, cell-based;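 note: parasite growth measured after 72 hours of compound exposure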
[18] = P. falciparum ATP4 D1247Y mutant growth inhibitors, dose response, NITD609-resistant line, SYBR Green, dry powder (AID 1159571); assay type: functional, cell-based;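 note: parasites synchronized at ring stage by sorbitol before testing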
[19] = P. falciparum Dd2 growth inhibitors, dose response, SYBR Green, dry powder samples (AID 1159566); assay type: functional, cell-based;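 note: potency for growth inhibition with lower SYBR green DNA signal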
Vero = experiment: host cell cytotoxicity of antiviral hits, dose response, cytotoxicity control for West Nile virus antiviral project, secondary assay (AID 1650); assay type: functional; conditions: Chlorocebus sabaeus
[20] = biological target: T8, DNA repair protein RAD52 homolog (Homo sapiens, UniProt P43351); assay type: functional, biochemical
T8 sequence (P43351 whole entry): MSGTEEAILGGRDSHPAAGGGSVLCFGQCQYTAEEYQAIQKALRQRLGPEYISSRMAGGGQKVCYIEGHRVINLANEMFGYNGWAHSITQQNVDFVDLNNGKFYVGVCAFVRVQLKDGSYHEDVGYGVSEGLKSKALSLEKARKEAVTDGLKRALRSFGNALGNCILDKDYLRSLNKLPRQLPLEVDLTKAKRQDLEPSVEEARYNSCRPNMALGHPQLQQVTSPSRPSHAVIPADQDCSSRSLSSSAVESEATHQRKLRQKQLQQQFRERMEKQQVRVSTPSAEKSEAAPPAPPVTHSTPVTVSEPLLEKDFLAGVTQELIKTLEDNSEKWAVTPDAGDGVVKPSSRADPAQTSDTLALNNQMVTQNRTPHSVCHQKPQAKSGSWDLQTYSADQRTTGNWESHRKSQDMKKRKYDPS

SMILES: CCCCOc1nc2ccccc2c(=O)n1-c1ccccc1
- IC50 [1]: 8.15 µM (active)
- IC50 [2]: 13.2 µM (not active)

SMILES: Cc1ccc(NC(=O)C(=O)NCCOc2ccc(Cl)cc2)c(C)c1
- IC50 [1]: 7.41 µM (active)
- IC50 [2]: 7.39 µM (active)

SMILES: COc1ccccc1NC(=O)c1ccccc1NC(=O)c1cc(Cl)ccc1NC(=O)c1ccco1
- IC50 [3]: > 109 µM (inactive)
- IC50 (Estrogen receptor): 12.5 µM (active)
- IC50 [4]: > 83.3 µM (inactive)

SMILES: CN1C(=O)CSc2ccc(NC(=O)N3CCC(N4CCCCC4)CC3)cc21
- IC50 (Estrogen receptor beta [5]): < 77 µM (not active) and < 23 nM (not active)
- IC50 (Estrogen receptor beta [6]): 6.24 µM (active)
- IC50 (Estrogen receptor): 11.8 µM (active)

SMILES: O=C1CC(=O)Nc2cc(S(=O)(=O)N3CCN(c4cccc(C(F)(F)F)c4)CC3)ccc2N1
- IC50 [3]: > 109 µM (inactive)
- IC50 [4]: > 83.3 µM (inactive)

SMILES: c1ccc(OCc2nnc3sc(C4COc5ccccc5O4)nn23)cc1 (stereo unspecified)
- IC50 (Estrogen receptor beta [5]): < 23 nM (not active)
- IC50 (Estrogen receptor beta [6]): > 50 µM (not active)
- IC50 (Estrogen receptor): 9.55 µM (active)

SMILES: COc1ccc(OC)c(C(=O)c2ccc(C(=O)O)cc2)c1
- IC50 [3]: > 109 µM (inactive)
- EC50 [7]: > 195 µM (not active)
- IC50 [4]: > 83.3 µM (inactive)

SMILES: CCOC(=O)c1c(-c2ccc(C)s2)csc1N
- IC50 (cells): > 138 µM (inactive)
- IC50 [8]: 35.4 µM (active)
- IC50 (Major prion protein): 104 µM (inactive)

SMILES: COc1ccc(OC)c(NC(=O)CC2C(=O)NCCN2C(=O)Nc2cccc(Cl)c2)c1 (stereo unspecified)
- IC50 (Coagulation factor XII): > 50 µM (inactive)
- CC50 [9]: > 40 µM (active)

SMILES: O=C1CC2=CC=CC(=O)C(=O)C2=C(O)O1
- CC50 [9]: > 40 µM (active)

SMILES: N#Cc1cccc(-c2ccc([C@@H]3[C@H](CO)N4CCCCN(C(=O)Nc5cccc(F)c5)C[C@@H]34)cc2)c1
- AC50 [10]: 40.6 µM (active)
- AC50 [11]: 7.5 µM (active)
- AC50 [12]: 47.2 µM (active)
- AC50 [13]: 2.18 µM (active)
- AC50 [14]: 16.7 µM (active)
- AC50 [15]: > 24 µM (inactive)

SMILES: C[C@@H]1CN([C@@H](C)CO)S(=O)(=O)c2ccc(C#Cc3ccccc3)cc2O[C@H]1CN(C)C(=O)C1CC1
- AC50 [11]: > 39 µM (inactive)
- AC50 [13]: 4.38 µM (active)

SMILES: COc1ccc(C#Cc2ccc3c(c2)[C@H]2[C@H](CCN2Cc2nccs2)[C@@H](CO)N3)cc1
- AC50 [16]: 74.7 µM (active)
- AC50 [17]: 3.44 µM (active)
- AC50 [18]: 2.52 µM (active)
- AC50 [19]: 2.06 µM (active)
- AC50 [13]: 1.9 µM (active)

SMILES: OC[C@@H]1[C@H](c2ccc(C#Cc3ccccc3F)cc2)[C@H]2CN(Cc3cncnc3)CCCCN12
- AC50 [11]: 10.8 µM (active)
- AC50 [13]: 3.54 µM (active)

SMILES: COc1ccc(C#Cc2ccc3c(c2)[C@H]2[C@H](CCN2Cc2nccs2)[C@H](CO)N3)cc1
- AC50 [16]: 59.9 µM (active)
- AC50 [17]: 2.95 µM (active)
- AC50 [18]: 1.87 µM (active)
- AC50 [19]: 1.76 µM (active)
- AC50 [13]: 2.09 µM (active)

SMILES: CCN(CC)CCNC(=O)c1cc2c(-c3cccc(OC)c3)nn(C)c2s1
- CC50 (Vero): > 100 µM (active)
- AC50 [20]: 3.79 µM (active)
